Reference: article PMC9785280, “Synthesis, Antiproliferative Evaluation and QSAR Analysis of Novel Halogen- and Amidino-Substituted Benzothiazoles and Benzimidazoles” (International Journal of Molecular Sciences, 2022)

Columns and labels:
[1] = tested on: CaCo-2 (colon adenocarcinoma) cells; assay: MTT antiproliferative assay, CaCo-2; type: cell-based, human; conditions: Homo sapiens, Caco-2; 72 h, MTT, mean ± SD of three independent experiments
Protocol: (§1) The growth inhibition activity was assessed according to the slightly modified procedure performed at the National Cancer Institute, Developmental Therapeutics Program.
(§2) Examined compounds were dissolved in DMSO (1 × 10^−2 M). The experiments were carried out on seven human tumor cell lines and two normal cell lines. The following cell lines were used: HeLa (human cervical adenocarcinoma; purchased from ATCC), CaCo-2 (human colorectal adenocarcinoma), HuT78 (T-cell lymphoma), THP-1 (acute monocytic leukemia), SW620 (colorectal adenocarcinoma, metastatic), MDA-MB-231 (human breast adenocarcinoma), HL60 (promyelocytic leukemia cell line), foreskin fibroblast cells (BJ) and MDCK1 (Madine–Darby canine kidney fibroblast like cells). MDCK1 cells were used between 24 and 26 passages.
(§3) Adherent cells were cultured in the Dulbecco’s modified Eagle medium—DMEM (Gibco, EU) supplemented with 10 % heat-inactivated fetal bovine serum (FBS, Gibco, EU), 2 mM glutamine, and 100 U/0.1 mg penicillin/streptomycin. Cells on suspension were cultured in RPMI 1640 (Gibco, EU) medium supplemented with 10 % FBS (Gibco, EU), 2 mM glutamine, 1 mM sodium pyruvate, 10 mM HEPES. Cells were grown in humidified atmosphere under the conditions of 37 °C/5% of CO2 gas in the CO2 incubator (IGO 150 CELLlife^TM, JOUAN, Thermo Fisher Scientific, Waltham, MA, USA). A erythrosin B (Sigma-Aldrich, St. Louis, MO, USA) dye exclusion method was used to assess cell viability before plating.
(§4) Adherent cells (HeLa, CaCo-2, MCF-7 and MDCK-1) were plated in 96-well flat bottom plates (Greiner, Frickenhausen, Austria) at a concentration of 2 × 10^4 cells/mL. Suspension cells (THP-1 and HuT78) were plated in 96-well microtiter plates (Sarstead, Newton, USA) at a concentration of 1 × 10^5 cells/mL. Twenty-four hours later, cells were treated with test agents in […] 10-fold dilutions ([…] to 10^−4 M) and incubated for further 72 h. Working dilutions were freshly prepared on the day of testing. The solvent was also tested for eventual inhibitory activity by adjusting its concentration to be the same as in working concentrations. After 72 h of incubation, the cell growth rate was evaluated by performing the MTT assay, which detects dehydrogenase activity in viable cells. For this purpose, upon completion of the incubation period, growth medium was discarded and 50 μL of MTT was added to each well at a concentration of 5 mg/mL. After four hours of incubation at 37 °C, water insoluble MTT-formazan crystals were dissolved in 150 μL of dimethyl-sulfoxide (DMSO) for adherent cells, and in 10 % SDS with 0.01 M/L HCl for cells grown in suspension. The absorbance (OD, optical density) was measured on a microplate reader (iMark, BIO RAD, Hercules, CA, USA) at 595 nm.
(§5) Percent of life cells was calculated as follows: % = OD (sample)–OD (background)/OD (control)–OD (background) × 100.
(§6) Optical density (OD) of background for adherent cells is the OD of MTT solution and DMSO; OD (background) for suspension cells is OD of the culture medium with MTT and 10% SDS with 0.01 M/L HCl; OD (control) is the OD of the cells growth without tested compounds.
Calculation of GI50 value curves and QC analysis is performed by using the Excel tools and GraphPadPrism software (La Jolla, CA), v. 5.03. Briefly, individual concentration effect curves are generated by plotting the logarithm of the concentration of tested compounds(X) vs. corresponding percent inhibition values (Y) using least squares fit. […] QC criteria parameters (Z0, S:B, R2, HillSlope) were checked for every GI50 curve.

[2] = tested on: MDCK1 (Madin–Darby canine kidney) cells; assay: MTT antiproliferative assay, non-tumor MDCK1 cells; type: cell-based; conditions: Canis lupus familiaris, MDCK1, 72 h, mean ± SD of three independent experiments, normal cells
Protocol: as §1, §2, §3, §4, §5, §6
(§7) Calculation of GI50 value curves and QC analysis is performed by using the Excel tools and GraphPadPrism software (La Jolla, CA), v. 5.03. Briefly, individual concentration effect curves are generated by plotting the logarithm of the concentration of tested compounds(X) vs. corresponding percent inhibition values (Y) using least squares fit. The best fit GI50 values are calculated using Log (inhibitor) versus normalized response—Variable slope equation, where Y Ľ 100/(1 ţ 10 ((LogIC50 _ X) * HillSlope)). QC criteria parameters (Z0, S:B, R2, HillSlope) were checked for every GI50 curve.

[3] = tested on: human fibroblasts (BJ); assay: MTT antiproliferative assay, normal BJ fibroblasts; type: cell-based; conditions: Homo sapiens, Fibroblast, 72 h, MTT, mean ± SD of three independent experiments; normal cells
Protocol: as §1, §2, §3, §4, §5, §6, §7

[4] = tested on: HeLa (cervical adenocarcinoma) cells; assay: MTT antiproliferative assay, HeLa; type: cell-based; conditions: Homo sapiens, 72 h, mean ± SD of three independent experiments
Protocol: as §1, §2, §3, §4, §5, §6, §7

[5] = tested on: HuT78 (T-cell lymphoma) cells; assay: MTT antiproliferative assay, HuT78; type: cell-based, human; conditions: for IC50: Homo sapiens, HuT78, 72 h, 72 h, MTT, mean ± SD of three independent experiments; for SI (BJ) HuT78: SI = IC50 BJ / IC50 HuT78
Protocol: as §1, §2, §3, §4, §5, §6, §7

SMILES | melting point | IC50 [1] | IC50 [2] | IC50 [3] | IC50 [4] | IC50 [5] | SI (BJ) HuT78 [5]
c1ccc(Cn2cc(COc3ccc(-c4nc5ccccc5s4)cc3)nn2)cc1 [26a, 2-(4-((1-Benzyl-1H-1,2,3-triazol-4-yl)methoxy)phenyl)benzothiazole] | 210 to 214 °C | > 100 µM | 36.7 ± 18 µM | > 100 µM | > 100 µM | > 100 µM | 
Clc1ccc2nc(-c3ccc(OCc4cn(Cc5ccccc5)nn4)cc3)sc2c1 [24a, 6-Chloro-2-(4-((1-benzyl-1H-1,2,3-triazol-4-yl)methoxy)phenyl)benzothiazole] | 201 to 205 °C | > 100 µM | 11.4 ± 14.5 µM | > 100 µM | > 100 µM | > 100 µM | 
Fc1cc(-c2nc3ccc(Cl)cc3s2)ccc1OCc1ccccn1 [18b] | 211 to 215 °C | > 100 µM | 29.8 ± 17.7 µM | > 100 µM | > 100 µM | > 100 µM | 
Cl.c1ccc(Cn2cc(COc3ccc(-c4nc5ccc(C6=NCCN6)cc5s4)cc3)nn2)cc1 [37a, 2-(4-((1-Benzyl-1H-1,2,3-triazol-4-yl)methoxy)phenyl)-6-(4,5-dihydro-1H-imidazol-2-yl)benzothiazole hydrochloride] | 153 to 156 °C | 3.7 ± 1.5 µM | 1.5 ± 0.3 µM | 4.3 ± 3.6 µM | 3.6 ± 0.1 µM | 1.6 ± 0.8 µM | 
COc1cc(-c2nc3ccccc3s2)ccc1OCc1c[nH]nn1 [23c, 2-(3-Methoxy-4-((1H-1,2,3-triazol-4-yl)methoxy)phenyl)benzothiazole] | 177 to 180 °C | 96.4 ± 13.3 µM | 29.5 ± 7.2 µM | > 100 µM | 45.7 ± 16.3 µM | 20 ± 8.7 µM | 5.0
COc1cc(-c2nc3ccccc3s2)ccc1OCC(=O)c1ccccc1 [17c, 2-(3-Methoxy-4-(2-oxo-2-phenylethoxy)phenyl)benzothiazole] | 184 to 186 °C | > 100 µM | 78 ± 27.8 µM | > 100 µM | > 100 µM | > 100 µM | 
O=C(COc1ccc(-c2nc3ccc(F)cc3s2)cc1F)c1ccccc1 [16b, 6-Fluoro-2-(3-fluoro-4-(2-oxo-2-phenylethoxy)phenyl)benzothiazole] | 148 to 152 °C | 89.3 ± 15.8 µM | 25.8 ± 9.4 µM | > 100 µM | > 100 µM | 69.8 ± 15.5 µM | 1.43
Cl.c1ccc(COc2ccc(-c3nc4ccc(C5=NCCN5)cc4s3)cc2)nc1 [35a, 2-(4-(Pyridin-2-ylmethoxy)phenyl)-6-(4,5-dihydro-1H-imidazol-2-yl)benzothiazole hydrochloride] | > 250 °C | 26.7 ± 2.1 µM | 2.7 ± 0.3 µM | 3.2 ± 0.3 µM | 18.9 ± 3.6 µM | 1.4 ± 0.2 µM | 
Cl.Fc1cc(-c2nc3ccc(C4=NCCN4)cc3s2)ccc1OCc1cn(Cc2ccccc2)nn1 [37b, 2-(3-Fluoro-4-((1-benzyl-1H-1,2,3-triazol-4-yl)methoxy)phenyl)-6-(4,5-dihydro-1H-imidazol-2-yl)benzothiazole hydrochloride] | > 240 °C | 6.1 ± 2.7 µM | 2.4 ± 0.3 µM | 5.3 ± 2.9 µM | 4 ± 0.4 µM | 2.1 ± 0.2 µM | 2.52
COc1cc(-c2nc3ccc(F)cc3s2)ccc1OCc1cn(Cc2ccccc2)nn1 [25c, 6-Fluoro-2-(3-methoxy-4-((1-benzyl-1H-1,2,3-triazol-4-yl)methoxy)phenyl)benzothiazole] | 180 to 183 °C | 77.6 ± 43.3 µM | 22.8 ± 4.9 µM | > 100 µM | > 100 µM | > 100 µM | 
Fc1ccc2nc(-c3ccc(OCc4c[nH]nn4)cc3)sc2c1 [22a, 6-Fluoro-2-(4-((1H-1,2,3-triazol-4-yl)methoxy)phenyl)benzothiazole] | 212 to 215 °C | 73.5 ± 4.5 µM | 1.1 ± 0.2 µM | > 100 µM | 54.5 ± 29.4 µM | 14.9 ± 10.8 µM | 6.71
COc1cc(-c2nc3ccc(C4=NCCN4)cc3s2)ccc1OCC(=O)c1ccccc1.Cl [34c, 2-(3-Methoxy-4-(2-oxo-2-phenylethoxy)phenyl)-6-(4,5-dihydro-1H-imidazol-2-yl)benzothiazole hydrochloride] | > 240 °C | 6.3 ± 3 µM | 2.1 ± 0.3 µM | 4 ± 0.1 µM | 3.1 ± 0.2 µM | 1.8 ± 0.7 µM | 
Fc1ccc2nc(-c3ccc(OCc4ccccn4)c(F)c3)sc2c1 [19b] | 190 to 195 °C | > 100 µM | 16.3 ± 11.5 µM | > 100 µM | > 100 µM | > 100 µM | 
O=C(COc1ccc(-c2nc3ccc(F)cc3s2)cc1)c1ccccc1 [16a, 6-Fluoro-2-(4-(2-oxo-2-phenylethoxy)phenyl)benzothiazole] | 164 to 167 °C | > 100 µM | 87.3 ± 6.9 µM | > 100 µM | > 100 µM | > 100 µM | 
COc1cc(-c2nc3ccc(F)cc3s2)ccc1OCC(=O)c1ccccc1 [16c, 6-Fluoro-2-(3-methoxy-4-(2-oxo-2-phenylethoxy)phenyl)benzothiazole] | 178 to 181 °C | > 100 µM | 6.8 ± 6.2 µM | > 100 µM | > 100 µM | > 100 µM | 
